The results in this text go back to patent US20260070917A1, “CYCLIN DEPENDENT KINASE DEGRADERS AND METHODS OF USE THEREOF” (Differentiated Therapeutics Inc, priority 2023, published 2026).

What all share (assay type): cell-based
The target of one assay is T1, CDK2 (Homo sapiens, UniProt P24941).
T1 construct: host or cells: HEK293-CDK2-Hibit
Kind of assay: HiBit Assay Protocol for CDK2 (HIBIT protein quantification, degradation). To be noted: HEK293-CDK2-Hibit cells, compound treatment for 6 hours; for DC50: ABS DC50. The method, boiled down:
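HEK293 cells expressing HiBiT-tagged CDK2 were seeded overnight, then treated 6 h with a 3-fold, 10-point compound dilution series. CDK2 levels were read as luminescence after lytic HiBiT/LgBiT detection, normalised to DMSO-only and medium-only controls, and DC50 derived by curve fitting.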
(In general: HiBiT is a short tag that completes a luciferase, so light tracks the accessible tagged protein.)

The target of assay [1] is T2, CCNE1 (Homo sapiens, UniProt P24864).
T2 construct: host or cells: HEK293-CCNE1-Hibit
T2 sequence (P24864 whole entry): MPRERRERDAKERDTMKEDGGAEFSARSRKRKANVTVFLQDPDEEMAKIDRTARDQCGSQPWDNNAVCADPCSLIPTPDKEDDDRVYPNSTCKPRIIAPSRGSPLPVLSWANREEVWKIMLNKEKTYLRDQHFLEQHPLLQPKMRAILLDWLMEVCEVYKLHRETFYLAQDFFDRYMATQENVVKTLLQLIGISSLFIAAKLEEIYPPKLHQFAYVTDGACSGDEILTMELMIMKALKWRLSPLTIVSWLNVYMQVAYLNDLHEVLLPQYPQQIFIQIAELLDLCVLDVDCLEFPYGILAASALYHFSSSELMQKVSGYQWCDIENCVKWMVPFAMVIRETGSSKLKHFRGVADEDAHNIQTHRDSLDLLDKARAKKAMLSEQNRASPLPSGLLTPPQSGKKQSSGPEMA
The assay is described as follows: HiBit Assay Protocol for CCNE1 (HIBIT protein quantification, degradation). Particulars: HEK293-CCNE1-Hibit cells, compound treatment for 6 hours. The method, boiled down:
(§1)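 HEK293 cells expressing HiBiT-tagged CCNE1 were seeded overnight, then treated 6 h with a 3-fold, 10-point compound dilution series. HiBiT levels were read by lytic LgBiT luminescence and normalised to DMSO-only (high) and medium-only (low) controls. DC50 was derived by curve fitting.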

The target in assay [2] is T3, CCNE1 (Homo sapiens, UniProt P24864+P24941).
T3 construct: host or cells: HEK293-CCNE1-Hibit
T3 sequence (P24864 whole entry, one chain of several): as the sequence (P24864 whole entry) above
The description is as above. Particulars: HEK293-CCNE1-Hibit cells, compound treatment for 6 hours, ABS DC50. The method, boiled down:
as §1

A further assay deals with T4, CDK9 (Homo sapiens, UniProt P50750).
T4 construct: host or cells: HEK293-CDK9-Hibit
T4 sequence (P50750 whole entry): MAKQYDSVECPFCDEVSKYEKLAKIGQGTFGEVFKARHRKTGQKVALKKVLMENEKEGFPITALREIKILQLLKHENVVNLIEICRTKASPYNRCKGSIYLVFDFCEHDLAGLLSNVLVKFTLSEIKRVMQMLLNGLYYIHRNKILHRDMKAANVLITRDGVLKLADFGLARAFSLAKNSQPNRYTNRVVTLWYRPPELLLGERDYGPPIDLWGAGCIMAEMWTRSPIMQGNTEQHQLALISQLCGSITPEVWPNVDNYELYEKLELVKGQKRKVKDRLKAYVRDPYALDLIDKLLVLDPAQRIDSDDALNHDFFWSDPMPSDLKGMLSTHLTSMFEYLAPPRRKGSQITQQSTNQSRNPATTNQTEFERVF
The assay is described as follows: HiBit Assay Protocol for CDK9 (HIBIT protein quantification, degradation). To be noted: HEK293-CDK9-Hibit cells, compound treatment for 6 hours; for Dmax: read-out: CDK9 HIBIT Protein Quantification Maximum; for DC50: ABS DC50. The method in brief: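 HEK293 cells carrying HiBiT-tagged CDK9 treated 6 h with compounds in a 3-fold, 10-point dilution series. CDK9 level read by lytic Nano-Glo HiBiT/LgBiT luminescence and normalized to 0.1% DMSO (high) and medium-only (low) controls. DC50 from curve fitting.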

Molecules are shown by their SMILES. Read-outs that look alike come from different tables or passages of the source.

In general, DC50 refers to the concentration at which degradation of the target reaches its halfway point. Lower therefore signals a more potent degrader. With `C[C@H](c1cccc(S(=O)(=O)N2CCC(Nc3ncc4c(n3)N([C@@H]3CCC[C@@H](O)C3)C(=O)C43CC3)CC2)c1)N1CCC(c2ccc3c(N4CCC(=O)NC4=O)nn(C)c3c2)CC1` [Compound 151, 1-(6-{1-[(1R)-1-[3-(4-{7′-[(1R,3R)-3-hydroxycyclohexyl]-6′-oxospiro[cyclopropane-1,5′-pyrrolo[2,3-d]pyrimidin]-2′-ylamino}piperidin-1-ylsulfonyl)phenyl]ethyl]piperidin-4-yl}-1-methylindazol-3-yl)-1,3-diazinane-2,4-dione], the “CDK2 HIBIT Protein Quantification Maximum” value at CDK2 was determined as 80%. Further, the DC50 on CDK2 came out at 3.31 nM; at CCNE1 [2], 78.5 nM. Also, the “CCNE1 HIBIT Protein Quantification Maximum” value at CCNE1 [1] was determined as 69%. The Dmax on CDK9 (6 h) is 3%.

For the compound `CN(CCCN1CCC(c2cccc3c2n(C)c(=O)n3C2CCC(=O)NC2=O)CC1)S(=O)(=O)c1ccc(Nc2ncc3c(n2)N([C@@H]2CCC[C@@H](O)C2)C(=O)C32CC2)cc1` (stereo partly drawn) [Compound 116, N-(3-(4-(1-(2,6-dioxopiperidin-3-yl)-3-methyl-2-oxo-2,3-dihydro-1H-benzo[d]imidazol-4-yl)piperidin-1-yl)propyl)-4-((7′-((1R,3R)-3-hydroxycyclohexyl)-6′-oxo-6′,7′-dihydrospiro[cyclopropane-1,5′-pyrrolo[2,3-d]pyrimidin]-2′-yl)amino)-N-methylbenzenesulfonamide], the “CDK2 HIBIT Protein Quantification Maximum” value at CDK2 is on record as 86%. Besides, the DC50 was 14 nM at CDK2, 23.2 nM at CCNE1 [2] and 74.9 nM on CDK9. For the same compound, on CCNE1 [1], the “CCNE1 HIBIT Protein Quantification Maximum” value came out at 75%. In addition, at CDK9 (6 h), the Dmax worked out at 81%.

In the case of `C[C@@H](C1CC1)N1C(=O)C2(CC2)c2cnc(NC3CCN(S(=O)(=O)c4cccc(CN5CCC(c6ccc7c(N8CCC(=O)NC8=O)nn(C)c7c6)CC5)c4)CC3)nc21` [Compound 164, 1-[6-(1-{[3-(4-{7′-[(1S)-1-Cyclopropylethyl]-6′-oxospiro[cyclopropane-1,5′-pyrrolo[2,3-d]pyrimidin]-2′-ylamino}piperidin-1-ylsulfonyl)phenyl]methyl}piperidin-4-yl)-1-methylindazol-3-yl]-1,3-diazinane-2,4-dione], the “CDK2 HIBIT Protein Quantification Maximum” value on CDK2 is recorded as 85%. The DC50 at CDK2 came out at 2.63 nM; at CCNE1 [2], 6.18 nM. The “CCNE1 HIBIT Protein Quantification Maximum” value at CCNE1 [1] is reported as 54%. In addition, the Dmax at CDK9 (6 h) turned out to be 12%.

In the case of `O=C1CCC(N2Cc3cc(CN4CC(Oc5cccc(S(=O)(=O)c6ccc(Nc7ncc8c(n7)N([C@@H]7CCC[C@@H](O)C7)C(=O)C87CC7)cc6)c5)C4)ccc3C2=O)C(=O)N1` (stereo partly drawn) [Compound 125, 3-[5-({3-[3-(4-{7′-[(1R,3R)-3-hydroxycyclohexyl]-6′-oxospiro[cyclopropane-1,5′-pyrrolo [2,3-d]pyrimidin]-2′-ylamino}benzenesulfonyl)phenoxy]azetidin-1-yl}methyl)-1-oxo-3H-isoindol-2-yl]piperidine-2,6-dione], at CDK2, the “CDK2 HIBIT Protein Quantification Maximum” value worked out at 54% and half-maximal degradation (DC50) was put at 4 nM. In addition, the “CCNE1 HIBIT Protein Quantification Maximum” value at CCNE1 [1] is 81%. In addition, the DC50 at CCNE1 [2] came to 2.35 nM. For the same compound, on CDK9, the Dmax came out at 13%.

Regarding `Cc1c(CN2CCC(c3ccc4c(N5CCC(=O)NC5=O)nn(C)c4c3)CC2)cccc1S(=O)(=O)N1CCC(Nc2ncc3c(n2)N([C@@H]2CCC[C@@H](O)C2)C(=O)C32CC2)CC1` [Compound 159, 1-[6-(1-{[3-(4-{7′-[(1R,3R)-3-Hydroxycyclohexyl]-6′-oxospiro [cyclopropane-1,5′-pyrrolo[2,3-d]pyrimidin]-2′-ylamino}piperidin-1-ylsulfonyl)-2-methylphenyl]methyl}piperidin-4-yl)-1-methylindazol-3-yl]-1,3-diazinane-2,4-dione], at CDK2, the “CDK2 HIBIT Protein Quantification Maximum” value stood at 68% and the DC50 is 2.83 nM. In addition, the “CCNE1 HIBIT Protein Quantification Maximum” value at CCNE1 [1] is listed as 54%. Further, half-maximal degradation on CCNE1 [2] (DC50) was put at 5.99 nM. Further, the Dmax at CDK9 (6 h) was 49%.

As for `O=C1CCC(N2Cc3cc(N4CCN(CC5CCN(c6cccc(S(=O)(=O)c7ccc(Nc8ncc9c(n8)N([C@@H]8CCC[C@@H](O)C8)C(=O)C98CC8)cc7)c6)CC5)CC4)ccc3C2=O)C(=O)N1` (stereo partly drawn) [Compound 126, 3-{5-[4-({1-[3-(4-{7′-[(1R,3R)-3-hydroxycyclohexyl]-6′-oxospiro [cyclopropane-1,5′-pyrrolo[2,3-d]pyrimidin]-2′-ylamino}benzenesulfonyl)phenyl]piperidin-4-yl}methyl)piperazin-1-yl]-1-oxo-3H-isoindol-2-yl}piperidine-2,6-dione], the “CDK2 HIBIT Protein Quantification Maximum” value on CDK2 is listed as 66%. Further, the DC50 at CDK2 turned out to be 6 nM; at CCNE1 [2], 29.6 nM; at CDK9, 33.4 nM. Further, the “CCNE1 HIBIT Protein Quantification Maximum” value at CCNE1 [1] stood at 71%. The Dmax on CDK9 turned out to be 84%.

As to `Cn1nc(N2CCC(=O)NC2=O)c2ccc(C3CCN(Cc4cccc(S(=O)(=O)N5CC[C@@H](Nc6ncc7c(n6)N([C@@H]6CCC[C@@H](O)C6)C(=O)C76CC6)[C@H](F)C5)c4)CC3)cc21` [Compound 158], at CDK2, the “CDK2 HIBIT Protein Quantification Maximum” value is on record as 80% and the DC50 turned out to be 2.64 nM. Besides, the “CCNE1 HIBIT Protein Quantification Maximum” value at CCNE1 [1] was found to be 56%. On CCNE1 [2], this compound gave a DC50 of 5.96 nM. For the same compound, on CDK9 (6 h), the Dmax stood at 13%.

Turning to `CC(c1cc(S(=O)(=O)N2CC[C@H](Nc3ncc4c(n3)N([C@@H]3CCC[C@@H](O)C3)C(=O)C43CC3)[C@H](F)C2)ccc1F)N1CCC(c2ccc3c(N4CCC(=O)NC4=O)nn(C)c3c2)CC1` (single isomer, unassigned) [Compound 200, 1-(6-{1-[(1R*)-1-{2-Fluoro-5-[(3R,4S)-3-fluoro-4-{7′-[(1R,3R)-3-hydroxycyclohexyl]-6′-oxospiro[cyclopropane-1,5′-pyrrolo[2,3-d]pyrimidin]-2′-ylamino}piperidin-1-ylsulfonyl]phenyl}ethyl]piperidin-4-yl}-1-methylindazol-3-yl)-1,3-diazinane-2,4-dione], at CDK2, the “CDK2 HIBIT Protein Quantification Maximum” value was 89% and the DC50 is 3.81 nM. For the same compound, the “CCNE1 HIBIT Protein Quantification Maximum” value on CCNE1 [1] is reported as 61%. The same compound displayed a DC50 on CCNE1 [2] of 9.88 nM. For the same compound, at CDK9 (6 h), the Dmax worked out at 13%.

With `CC1CN(Cc2cccc(S(=O)(=O)N3CCC(Nc4ncc5c(n4)N([C@@H]4CCC[C@@H](O)C4)C(=O)C54CC4)CC3)c2)CCC1c1ccc2c(N3CCC(=O)NC3=O)nn(C)c2c1` (stereo partly drawn) [Compound 182, 1-[6-(1-{[3-(4-{7′-[(1R,3R)-3-Hydroxycyclohexyl]-6′-oxospiro[cyclopropane-1,5′-pyrrolo[2,3-d]pyrimidin]-2′-ylamino}piperidin-1-ylsulfonyl)phenyl]methyl}-3-methylpiperidin-4-yl)-1-methylindazol-3-yl]-1,3-diazinane-2,4-dione], the “CDK2 HIBIT Protein Quantification Maximum” value at CDK2 worked out at 82%. The figures for the DC50 on CDK2 and at CCNE1 [2] were 4.8 nM and 8.09 nM, respectively. Besides, at CCNE1 [1], the “CCNE1 HIBIT Protein Quantification Maximum” value was 52%. For the same compound, on CDK9 (6 h), the Dmax was 46%.

As to `CC1CCCC1N1C(=O)C2(CC2)c2cnc(Nc3ccc(S(=O)(=O)N(C)CCCN4CCC(c5cccc6c5n(C)c(=O)n6C5CCC(=O)NC5=O)CC4)cc3)nc21` (centres unmarked) [Compound 117, N-(3-(4-(1-(2,6-dioxopiperidin-3-yl)-3-methyl-2-oxo-2,3-dihydro-1H-benzo[d]imidazol-4-yl)piperidin-1-yl)propyl)-N-methyl-4-((7′-(2-methylcyclopentyl)-6′-oxo-6′,7′-dihydrospiro [cyclopropane-1,5′-pyrrolo[2,3-d]pyrimidin]-2′-yl)amino)benzenesulfonamide], at CDK2, the “CDK2 HIBIT Protein Quantification Maximum” value came to 78%. Moreover, the DC50 at CDK2 is 10 nM; at CCNE1 [2], 7.43 nM; on CDK9 it was 21.8 nM. Besides, the “CCNE1 HIBIT Protein Quantification Maximum” value at CCNE1 [1] worked out at 64%. In addition, at CDK9 (6 h), the Dmax was 65%.

For `C[C@@H](c1cccc(S(=O)(=O)N2CCC(Nc3ncc4c(n3)N([C@@H]3CCC[C@@H](O)C3)C(=O)C43CC3)CC2)c1)N1CCC(c2ccc3c(N4CCC(=O)NC4=O)nn(C)c3c2)CC1` (single isomer, unassigned) [Compound 152], the “CDK2 HIBIT Protein Quantification Maximum” value on CDK2 amounted to 88%. Also, the DC50 on CDK2 amounted to 4.22 nM; on CCNE1 [2], 23.6 nM; at CDK9, 2170 nM. The “CCNE1 HIBIT Protein Quantification Maximum” value on CCNE1 [1] is given as 53%. On CDK9 (6 h), the Dmax was found to be 52%.
